The subject of test [1] is Pseudomonas PAO1 strain (ATCC 15692). Description: Growth of test microbe (turbidity OD600), 96-well microplate culture. The class given is cell-based. The protocol: Pseudomonas PAO1 strain (ATCC 15692) was subjected to stationary culture performed in LB culture medium (Lysogeny Broth; manufactured by Becton Dickinson) at 37° C. for 24 hours. The turbidity (OD600) of the culture solution was measured. The culture solution was diluted with Mueller Hinton Broth (BBL made) to prepare a suspension (15 mL) having a turbidity (OD600) of 1/10^6.
To each of the wells of a 96-well microplate (351172; manufactured by Japan Becton Dickinson), 6 μL of DMSO (Tokyo Chemical Industry Co. Ltd) and an ethanol solution (1 μL, 3 μL or 5 μL) of a test compound were added. After that, the microplate was allowed to stand still at room temperature for 5 hours to evaporate ethanol. The suspension of Pseudomonas microbe prepared in the above step 1) was added in an amount of 145 μL per well and culture was initiated. As the test compound, 2-methylhydroquinone (Sigma Aldrich) and p-toluquinone (Tokyo Kasei) were used. As a reference compound, sodium hypochlorite (manufactured by Wako Pure Chemical Industries Ltd.) was used. As a control, an ethanol solvent (EtOH control) alone was used. The concentration of the test compound in the ethanol solution is 1,000 ppm or 10,000 ppm and the final concentration of the test compound in the culture solution was about from 7 to 333 ppm.
After the 96-well microplate was subjected to stationary culture performed at 30° C. for 24 hours, turbidity (OD600) was measured to check growth. Subsequently, individual wells were stained with 0.1% crystal violet and thoroughly washed twice with physiological saline. To each well, 200 μL of ethanol was added and the absorbance (OD570) was measured to obtain the amount of the biofilm formed.
Compounds listed in Table 3 were each added to a test microbe and culture was conducted by the same procedure as in Test Example 1 and the amount of growth (OD600) and the amount of biofilm formed (OD570) were measured. For compounds a, b, c, f, h, i, J and k, 20 mM ethanol solutions were prepared; whereas for compounds d, e, g, 5 mM ethanol solutions were prepared. The solutions were each added to a 96-well microplate in an amount of 1 to 8 μL and evaluation was made. The final concentrations of the individual compounds are described in Table 3.
(§1) Growth inhibition rates relative to the control (ethanol alone) were calculated based on OD600 values measured and in accordance with the following expression. In addition, biofilm (BF) formation inhibition rates relative to the control (ethanol alone) were calculated based on OD570 values and in accordance with the following expression:
Growth inhibition (%)=(1−(compound addition group OD600/control group OD600))×100
(§2) As a control, an ethanol solvent alone was used (EtOH control). The concentrations of test compounds in the ethanol solution were as follows: test compound 1: 20 mM, test compounds 2 to 7: 100 mM. To each of the wells of a 96-well microplate (351172; manufactured by Japan Becton Dickinson), 6 μL of DMSO (Tokyo Kasei) and an ethanol solution of each test compound (1 to 8 μL) were added and then the microplates were allowed to stand still at room temperature for 5 hours to evaporate ethanol. A suspension solution of a Pseudomonas microbe prepared in the same procedure as in Test Example 1, 1) was added in an amount of 145 μL per well and culture was initiated.
(§3) After the 96-well microplate was subjected to stationary culture at 30° C. for 24 hours, turbidity (OD600) was measured to check growth. Subsequently, individual wells were stained with 0.1% crystal violet and thoroughly washed twice with physiological saline. To each well, 200 μL of ethanol was added and the absorbance (OD570) was measured to obtain the amount of the biofilm formed. The growth inhibition rate and biofilm (BF) formation inhibition rate were calculated based on OD600 and OD570 values measured and in accordance with the expressions used in Test Example 2.

Test [2] shares this test system. As to the kind of experiment: Amount of biofilm formed (crystal violet, OD570), 96-well microplate culture. The class given is cell-based. The protocol:
Pseudomonas PAO1 strain (ATCC 15692) was subjected to stationary culture performed in LB culture medium (Lysogeny Broth; manufactured by Becton Dickinson) at 37° C. for 24 hours. The turbidity (OD600) of the culture solution was measured. The culture solution was diluted with Mueller Hinton Broth (BBL made) to prepare a suspension (15 mL) having a turbidity (OD600) of 1/10^6. […]
as §1
BF inhibition (%)={1−(compound addition group OD570/control group OD570)}×100
as §2, §3

[3] abbreviates: high concentration range of 200 ppm or more.
The mark [4] stands for this setting: Pseudomonas, read-out: Growth inhibition (%).
The mark [5] stands for this setting: Pseudomonas, read-out: BF inhibition (%).

SMILES strings stand for the structures.

Regarding `Cc1cc(O)ccc1O` [b, 2-Methylhydroquinone], the inhibition (usually how much of the control response was suppressed) at 16 ppm came to 31.2% in test [1] (Pseudomonas, final concentration 16 ppm) and 51.4% in test [2] (Pseudomonas, final concentration 16 ppm, read-out: BF inhibition (%)). For the same compound, the inhibition at 33 ppm was < 0% in test [1] (Pseudomonas, final concentration 33 ppm) and 42.5% in test [2] (Pseudomonas, final concentration 33 ppm, read-out: BF inhibition (%)). The inhibition at 65 ppm in test [1] (Pseudomonas, final concentration 65 ppm) was found to be 4%; in test [2] (Pseudomonas, final concentration 65 ppm, read-out: BF inhibition (%)), 76.5%. The inhibition at 98 ppm in test [1] (Pseudomonas, final concentration 98 ppm) was < 0%; in test [2] (Pseudomonas, final concentration 98 ppm, read-out: BF inhibition (%)), 87.3%. The inhibition at 114 ppm in test [1] (Pseudomonas, final concentration 114 ppm) worked out at 1.5%; in test [2] (Pseudomonas, final concentration 114 ppm, read-out: BF inhibition (%)) it was 95.2%. For the same compound, the inhibition at 130 ppm was determined as 0% in test [1] (Pseudomonas, final concentration 130 ppm) and 96.2% in test [2] (Pseudomonas, final concentration 130 ppm, read-out: BF inhibition (%)). For the same compound, the “Growth OD600” value in test [1] (final concentration 7 ppm, EtOH control 0.5913) is given as 0.6114; in test [1] (final concentration 20 ppm, EtOH control 0.6346), 0.6276; in test [1] (final concentration 33 ppm, EtOH control 0.668), 0.6291; in test [1] (final concentration 67 ppm, EtOH control 0.628), 0.471; in test [1] (final concentration 200 ppm, EtOH control 0.6045), 0.3373; in test [1] (final concentration 333 ppm, EtOH control 0.6088) it was 0.4302. In test [1] (setting [3]), the “microbial growth (in words)” value was “inhibited”. Besides, the “The amount of the biofilm formed OD570” value in test [2] (final concentration 7 ppm, EtOH control 0.9163) was 0.7615; in test [2] (final concentration 20 ppm, EtOH control 0.9564), 0.7848; in test [2] (final concentration 33 ppm, EtOH control 0.8974), 0.739; in test [2] (final concentration 67 ppm, EtOH control 0.8853), 0.5875; in test [2] (final concentration 200 ppm, EtOH control 0.9248), 0.0566; in test [2] (final concentration 333 ppm, EtOH control 0.9562), 0.0744. The “biofilm formation (in words)” value in test [2] (setting [3]) and in test [2] (low concentration range of less than 200 ppm) was “inhibited” throughout.

For `Cc1cc(O)c(C)c(O)c1` [Compound 5, 2,5-Dimethylresorcinol], in test [1] (setting [4]), the inhibition at 92 ppm is < 0%, the inhibition at 184 ppm was < 0%, the inhibition at 368 ppm was < 0% and the inhibition at 552 ppm worked out at 9.3%. Moreover, in test [1] (setting [4]), the inhibition at 644 ppm was 14% and the inhibition at 736 ppm came out at 11.1%. In test [2] (setting [5]), the inhibition at 92 ppm is < 0%, the inhibition at 184 ppm turned out to be 0.4%, the inhibition at 368 ppm is < 0% and the inhibition at 552 ppm amounted to 10.4%. Moreover, in test [2] (setting [5]), the inhibition at 644 ppm is 20.4% and the inhibition at 736 ppm was 55%.

As to `CCCc1c(O)cccc1O` [Compound 4, 2-Propylresorcinol], the inhibition at 101 ppm in test [1] (Pseudomonas, Test Example 3, final concentration 101 ppm) was < 0%; in test [2] (Pseudomonas, Test Example 3, final concentration 101 ppm, read-out: BF inhibition (%)) it was < 0%. Besides, the inhibition at 203 ppm was 20.5% in test [1] (Pseudomonas, Test Example 3, final concentration 203 ppm) and < 0% in test [2] (Pseudomonas, Test Example 3, final concentration 203 ppm, read-out: BF inhibition (%)). Moreover, the inhibition at 405 ppm was < 0% in test [1] (Pseudomonas, Test Example 3, final concentration 405 ppm) and < 0% in test [2] (Pseudomonas, Test Example 3, final concentration 405 ppm, read-out: BF inhibition (%)). For the same compound, the inhibition at 608 ppm in test [1] (Pseudomonas, Test Example 3, final concentration 608 ppm) turned out to be 6.8%; in test [2] (Pseudomonas, Test Example 3, final concentration 608 ppm, read-out: BF inhibition (%)), 7.9%. For the same compound, the inhibition at 709 ppm in test [1] (Pseudomonas, Test Example 3, final concentration 709 ppm) is 16.4%; in test [2] (Pseudomonas, Test Example 3, final concentration 709 ppm, read-out: BF inhibition (%)), 21.7%. In addition, the inhibition at 810 ppm in test [1] (Pseudomonas, Test Example 3, final concentration 810 ppm) is < 0%; in test [2] (Pseudomonas, Test Example 3, final concentration 810 ppm, read-out: BF inhibition (%)) it was 14.1%.

Regarding `CCc1cc(O)ccc1O` [f, Ethylquinol], the inhibition at 18 ppm came to 2.1% in test [1] (Pseudomonas, final concentration 18 ppm) and 18.6% in test [2] (Pseudomonas, final concentration 18 ppm, read-out: BF inhibition (%)). The inhibition at 37 ppm is 5.5% in test [1] (Pseudomonas, final concentration 37 ppm) and 31.1% in test [2] (Pseudomonas, final concentration 37 ppm, read-out: BF inhibition (%)). For the same compound, the inhibition at 74 ppm was < 0% in test [1] (Pseudomonas, final concentration 74 ppm) and 40.6% in test [2] (Pseudomonas, final concentration 74 ppm, read-out: BF inhibition (%)). Further, the inhibition at 110 ppm was < 0% in test [1] (Pseudomonas, final concentration 110 ppm) and 50.8% in test [2] (Pseudomonas, final concentration 110 ppm, read-out: BF inhibition (%)). The inhibition at 129 ppm in test [1] (Pseudomonas, final concentration 129 ppm) is < 0%; in test [2] (Pseudomonas, final concentration 129 ppm, read-out: BF inhibition (%)) it was 75.4%. Also, the inhibition at 147 ppm is < 0% in test [1] (Pseudomonas, final concentration 147 ppm) and 78.9% in test [2] (Pseudomonas, final concentration 147 ppm, read-out: BF inhibition (%)).

Consider `CCCCc1cc(O)ccc1O` [j, 2-Butylhydroquinone], for which the inhibition at 22 ppm was 8.5% in test [1] (Pseudomonas, final concentration 22 ppm) and 16.3% in test [2] (Pseudomonas, final concentration 22 ppm, read-out: BF inhibition (%)). Also, the inhibition at 44 ppm in test [1] (Pseudomonas, final concentration 44 ppm) is < 0%; in test [2] (Pseudomonas, final concentration 44 ppm, read-out: BF inhibition (%)) it was 14.1%. For the same compound, the inhibition at 89 ppm in test [1] (Pseudomonas, final concentration 89 ppm) stood at 0.8%; in test [2] (Pseudomonas, final concentration 89 ppm, read-out: BF inhibition (%)) it was 42.1%. Moreover, the inhibition at 133 ppm in test [1] (Pseudomonas, final concentration 133 ppm) is < 0%; in test [2] (Pseudomonas, final concentration 133 ppm, read-out: BF inhibition (%)) it was 57.3%. Moreover, the inhibition at 155 ppm in test [1] (Pseudomonas, final concentration 155 ppm) was < 0%; in test [2] (Pseudomonas, final concentration 155 ppm, read-out: BF inhibition (%)), 63.9%. The inhibition at 177 ppm in test [1] (Pseudomonas, final concentration 177 ppm) was < 0%; in test [2] (Pseudomonas, final concentration 177 ppm, read-out: BF inhibition (%)), 75.4%.

Take `CCCCCc1cc(O)cc(O)c1` [Compound 3, 5-Pentylresorcinol]: in test [1] (setting [4]), the inhibition at 120 ppm is 7.7%, the inhibition at 240 ppm is < 0%, the inhibition at 480 ppm is < 0% and the inhibition at 720 ppm is < 0%. In test [1] (setting [4]), the inhibition at 840 ppm was 17% and the inhibition at 960 ppm was determined as 4.9%. Also, in test [2] (setting [5]), the inhibition at 120 ppm turned out to be 0.9%, the inhibition at 240 ppm is < 0%, the inhibition at 480 ppm worked out at 50.6% and the inhibition at 720 ppm was found to be 42.3%. For the same compound, in test [2] (setting [5]), the inhibition at 840 ppm came to 85% and the inhibition at 960 ppm is 86.1%.

The values are drawn from patent US20190124918A1, “BIOFILM FORMATION INHIBITOR AND BIOFILM FORMATION INHIBITING COMPOSITION” (KAO CORPORATION, priority 2016, published 2019).
